# Where two headings read alike, the source gives them in different places.
# Assays:
# [1] = Solubility determinations in non-aqueous solvents; format: physicochemical; conditions: for solubility at 72 h: organic solvent or mixture, thermodynamic from solid, read-out: Estimated maximum solubilities (mg/ml), at 18 to 23° C.
# Method: Form B of Compound (1), prepared as described in Example 3, was charged to the appropriate solvent (2 ml) at intervals of approximately 1 hour. The solutions were purposefully saturated and allowed to stir over 72 h at 18 to 23° C. After this time, the suspensions were centrifuged, their supernatants were sampled, diluted accordingly and the peak areas of the corresponding analytes were measured by HPLC and compared against those of the standard calibrants. The approximate solubilities were calculated and solubilities were physically checked on an anhydrous solvent free basis to confirm that the results were consistent.
# The saturated solutions were centrifuged and 100 μl of the clarified supernatant was added to 250 ml volumetric (ethanol) or 100 ml volumetrics (remainder) and made to volume with sample diluent. The diluted samples were then analysed by HPLC peak area and the estimated maximum solubilities were calculated and are reported in the table below.
# To confirm the estimated solubilities were of the right order of magnitude solutions were prepared up to the estimated maximum measured concentrations and the mixtures were stirred overnight under the same conditions to confirm dissolution.
# [2] = Solubility determinations in purified water and buffers; format: physicochemical; conditions: for solubility at 24 h: 18 °C, read-out: Measured solubilities (mg/ml), bound; for solubility at 24 h / Measured solubilities (mg/ml), value in brackets / Measured solubilities (mg/ml), bound: 18-23° C., t = 24 h
# Method: The solubilities of crystalline form B and the amorphous form of the compound of formula (1) were determined in purified water and buffers at the same concentration up to 24 h stir time at 18 to 23° C.
# The samples of the compound of formula (1) (50 mg) were each suspended in purified water (2 mL) or the appropriate buffer and stirred at ambient temperature (18-23° C.) for 20 to 24 h. After this time the slurries were centrifuged, diluted if appropriate by HPLC sample diluent (acetonitrile/water, 1/1, v/v) and analysed by HPLC peak area. The measured values were compared against a relevant calibration curve for the compound of formula (1). The approximate solubilities were calculated and compensation factors were applied for the appropriate dilution factors and % w/w assays. The dilution factor ensured that the peak area values fell within the desired calibration curve ranges.
# The plug of solid that remained in the centrifuge tube was dried in vacuum oven and analysed by XRPD.
# The preparations of the buffers used in the study are described below:
# pH 1.2—Mix 50 mL of 0.2M potassium chloride solution with 85 mL of 0.2M hydrochloric acid solution.
# pH 2—Mix 50 mL of 0.2M potassium chloride solution with 13 mL of 0.2M hydrochloric acid solution.
# pH 3—Mix 100 mL of 0.1M potassium hydrogen phthalate with 44.6 mL of 0.1M hydrochloric acid solution.
# pH 4—Mix 100 mL of 0.1M potassium hydrogen phthalate with 0.2 mL of 0.1M hydrochloric acid solution.
# pH 5—Mix 100 mL of 0.1M potassium hydrogen phthalate with 45.2 mL of 0.1M sodium hydroxide solution.
# pH 6—Mix 100 mL of 0.1M potassium dihydrogen orthophosphate with 11.2 mL of 0.1M sodium hydroxide solution.
# pH 7—Mix 100 mL of 0.1M potassium dihydrogen orthophosphate with 58.2 mL of 0.1M sodium hydroxide solution.
# pH 8—Mix 100 mL of 0.1M potassium dihydrogen orthophosphate with 93.4 mL of 0.1M sodium hydroxide solution.
# [3] = test system: Human melanoma cell line A375; assay: Anti-proliferative activity (Alamar Blue); format: cell-based; conditions: A-375, 96 h, A375 cells, 4 days incubation
# Method: The anti-proliferative activities of the compound of the invention was determined by measuring the ability of the compound of formula (1) to inhibit growth in the Human melanoma cell line A375.
# Cell proliferation was determined by measuring the conversion of rezasurin (Alamar Blue) to resorufin in reponse to mitochondrial activity (Nociari, M. M, Shalev, A., Benias, P., Russo, C. Journal of Immunological Methods 1998, 213, 157-167). A375 cells (American Type Culture Collection, Teddington, UK) were grown in Dulbecco's Modified Eagle Medium+10% FBS. Each well of a black 96-well flat-bottomed plate was seeded with 2×10^3 cells in 200 μl of complete culture medium one day before the compound treatment. Cells were incubated with compound in 0.1% (v/v) dimethyl sulfoxide (DMSO) for 4 days before addition of 20 μl Alamar blue. After a further 6 h incubation at 37° C. the plate was read on a Spectramax Gemini reader (Molecular Devices; excitation 535 nm, emission 590 nm). GI50 values were calculated using a sigmoidal dose response equation (Prism GraphPad software, La Jolla, Calif., USA).
smiles,measurement,setting,value
"COc1cc(F)cc([C@@H](CO)NC(=O)[C@@H](C)N2Cc3ccc(-c4nc(NC5CCOCC5)ncc4Cl)cc3C2=O)c1 [(2R)-2-(6-{5-chloro-2-[(oxan-4-yl)amino]pyrimidin-4-yl}-1-oxo-2,3-dihydro-1H-isoindol-2-yl)-N-[(1S)-1-(3-fluoro-5-methoxyphenyl)-2-hydroxyethyl]propanamide]",solubility at 72 h,"[1]; PEG 400, 18 °C",229 mg/mL
same,solubility at 72 h,"[1]; ethanol, 18 °C",337 mg/mL
same,solubility at 72 h,"[1]; glycerol, 18 °C",5 mg/mL
same,solubility at 72 h,"[1]; propylene glycol, 18 °C",289 mg/mL
same,solubility,"[2]; buffers at pH 1.2 to 8.0, 20.5 °C, pH 1.2, aqueous buffer, thermodynamic from solid, buffers at pH 1.2 to 8.0, read-out: Solubility in buffers (conclusion: practically insoluble)",< 100 µg/mL
same,solubility at 24 h,"[2]; pH 1.2 buffer, pH 1.2, simulated gastric fluid, thermodynamic from solid, pH 1.2 Buffer",≥ 0.1 mg/mL
same,solubility at 24 h,"[2]; pH 2 buffer, pH 2, simulated gastric fluid, thermodynamic from solid, pH 2 Buffer",< 0.1 mg/mL
same,solubility at 24 h,"[2]; pH 3 buffer, pH 3, aqueous buffer, thermodynamic from solid, pH 3 Buffer",< 0.1 mg/mL
same,solubility at 24 h,"[2]; pH 4 buffer, pH 4, aqueous buffer, thermodynamic from solid, pH 4 Buffer",< 0.1 mg/mL
same,solubility at 24 h,"[2]; pH 5 buffer, pH 5, aqueous buffer, thermodynamic from solid, pH 5 Buffer",< 0.1 mg/mL
same,solubility at 24 h,"[2]; pH 6 buffer, pH 6, aqueous buffer, thermodynamic from solid, pH 6 Buffer",< 0.1 mg/mL
same,solubility at 24 h,"[2]; pH 7 buffer, pH 7, aqueous buffer, thermodynamic from solid, pH 7 Buffer",< 0.1 mg/mL
same,solubility at 24 h,"[2]; pH 8 buffer, pH 8, aqueous buffer, thermodynamic from solid, pH 8 Buffer",< 0.1 mg/mL
same,solubility at 24 h,"[2]; purified water, water, thermodynamic from solid, Purified water",< 0.1 mg/mL
"COc1cc(F)cc([C@@H](CO)NC(=O)[C@@H](C)N2Cc3ccc(-c4nc(NC5CCOCC5)ncc4Cl)cc3C2=O)c1 [Amorphous Form of the Compound of Formula (1)] [(2R)-2-(6-{5-chloro-2-[(oxan-4-yl)amino]pyrimidin-4-yl}-1-oxo-2,3-dihydro-1H-isoindol-2-yl)-N-[(1S)-1-(3-fluoro-5-methoxyphenyl)-2-hydroxyethyl]propanamide]","Measured solubilities (mg/ml), value in brackets",[2]; Purified water,(0.0234 mg/ml
same,"Measured solubilities (mg/ml), value in brackets",[2]; pH 1.2 Buffer,(0.1249 mg/ml
same,"Measured solubilities (mg/ml), value in brackets",[2]; pH 2 Buffer,(0.0226 mg/ml
same,"Measured solubilities (mg/ml), value in brackets",[2]; pH 3 Buffer,(0.0257 mg/ml
same,"Measured solubilities (mg/ml), value in brackets",[2]; pH 4 Buffer,(0.0418 mg/ml
same,"Measured solubilities (mg/ml), value in brackets",[2]; pH 5 Buffer,(0.0268 mg/ml
same,"Measured solubilities (mg/ml), value in brackets",[2]; pH 6 Buffer,(0.0149 mg/ml
same,"Measured solubilities (mg/ml), value in brackets",[2]; pH 7 Buffer,(0.0136 mg/ml
same,"Measured solubilities (mg/ml), value in brackets",[2]; pH 8 Buffer,(0.0138 mg/ml
"COc1cc(F)cc([C@@H](CO)NC(=O)[C@@H](C)N2Cc3ccc(-c4nc(NC5CCOCC5)ncc4Cl)cc3C2=O)c1 [Crystalline Form B of the Compound of Formula (1)] [(2R)-2-(6-{5-chloro-2-[(oxan-4-yl)amino]pyrimidin-4-yl}-1-oxo-2,3-dihydro-1H-isoindol-2-yl)-N-[(1S)-1-(3-fluoro-5-methoxyphenyl)-2-hydroxyethyl]propanamide]","Measured solubilities (mg/ml), bound",[2]; Purified water,<0.1 mg/mL
same,"Measured solubilities (mg/ml), bound",[2]; pH 1.2 Buffer,<0.1 mg/mL
same,"Measured solubilities (mg/ml), bound",[2]; pH 2 Buffer,<0.1 mg/mL
same,"Measured solubilities (mg/ml), value in brackets",[2]; pH 2 Buffer,(0.0034 mg/ml
same,"Measured solubilities (mg/ml), bound",[2]; pH 3 Buffer,<0.1 mg/mL
same,"Measured solubilities (mg/ml), value in brackets",[2]; pH 3 Buffer,(0.0045 mg/ml
same,"Measured solubilities (mg/ml), bound",[2]; pH 4 Buffer,<0.1 mg/mL
same,"Measured solubilities (mg/ml), value in brackets",[2]; pH 4 Buffer,(0.0049 mg/ml
same,"Measured solubilities (mg/ml), bound",[2]; pH 5 Buffer,<0.1 mg/mL
same,"Measured solubilities (mg/ml), value in brackets",[2]; pH 5 Buffer,(0.0031 mg/ml
same,"Measured solubilities (mg/ml), bound",[2]; pH 6 Buffer,<0.1 mg/mL
same,"Measured solubilities (mg/ml), value in brackets",[2]; pH 6 Buffer,(0.0027 mg/ml
same,"Measured solubilities (mg/ml), bound",[2]; pH 7 Buffer,<0.1 mg/mL
same,"Measured solubilities (mg/ml), value in brackets",[2]; pH 7 Buffer,(0.0017 mg/ml
same,"Measured solubilities (mg/ml), bound",[2]; pH 8 Buffer,<0.1 mg/mL
same,"Measured solubilities (mg/ml), value in brackets",[2]; pH 8 Buffer,(0.0020 mg/ml
"COc1cc(F)cc([C@@H](CO)NC(=O)[C@@H](C)N2Cc3ccc(-c4nc(NC5CCOCC5)ncc4Cl)cc3C2=O)c1 [compound of formula (1), (2R)-2-(6-{5-chloro-2-[(oxan-4-yl)amino]pyrimidin-4-yl}-1-oxo-2,3-dihydro-1H-isoindol-2-yl)-N-[(1S)-1-(3-fluoro-5-methoxyphenyl)-2-hydroxyethyl]propanamide]",GI50,[3],3.4 nM
same,"Solubility in ethanol, PEG 400 and propylene glycol compared with water","[1]; ethanol, PEG 400 and propylene glycol than in water",significantly greater solubility

# Source: US11142518B2, “6-pyrimidin-isoindole derivative as ERK1/2 inhibitor” (OTSUKA PHARMACEUTICAL CO., LTD., priority 2017, dated 2021)
